According to US10689414B2 (Agios Pharmaceuticals, Inc., priority 2013, dated 2020):
pIC50: −log10 of the molar value.

Tested on: U87MG cells
Assay: Cellular assay, inhibition of 2-HG production in U87MG cells
Type: cell-based
Conditions: Homo sapiens, U-87 MG, 48 h
Method in brief: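 HT1080 or U87MG cells (U87MG kept with 500 ug/mL G418) seeded at 5000 cells/well and treated with compound at 0.2% final DMSO. Incubated 48 h at 37 °C. 2-HG inhibition determined by LC-MS. Viability read by CellTiter-Glo luminescence at 72 h post-dose.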

pIC50	Structure (SMILES)
> 7.00	N#Cc1ccnc(N2C(=O)CC[C@H]2C(=O)N(c2cncc(F)c2)[C@H](C(=O)NC2CCC(F)(F)CC2)c2ccccc2Cl)c1 [Compound 193, (S)—N—((S)-1-(2-Chlorophenyl)-2-(4,4-difluorocyclohexylamino)-2-oxoethyl)-1-(4-cyanopyridin-2-yl)-N-(5-fluoropyridin-3-yl)-5-oxopyrrolidine-2-carboxamide]
> 7.00	N#Cc1ccnc(N2C(=O)CC[C@H]2C(=O)N(c2cc(F)cc(F)c2)[C@H](C(=O)NC2CC(F)(F)C2)c2ccccc2Cl)c1F [Compound 88, (S)—N—((S)-1-(2-Chlorophenyl)-2-((3,3-difluorocyclobutyl)amino)-2-oxoethyl)-1-(4-cyano-3-fluoropyridin-2-yl)-N-(3,5-difluorophenyl)-5-oxopyrrolidine-2-carboxamide]
> 7.00	CN(C)S(=O)(=O)c1cccc(N(C(=O)[C@@H]2CCC(=O)N2c2cc(C#N)ccn2)[C@H](C(=O)NC2CC(F)(F)C2)c2ccccc2Cl)c1 [Compound 156, (S)—N—((S)-1-(2-Chlorophenyl)-2-(3,3-difluorocyclobutylamino)-2-oxoethyl)-1-(4-cyanopyri-din-2-yl)-N-(3-(N,N-dimethylsulfamoyl)phenyl)-5-oxopyrrolidine-2-carboxamide]
> 7.00	N#Cc1ccnc(N2C(=O)OCC[C@H]2C(=O)N(c2cncc(F)c2)[C@H](C(=O)NC2CC(F)(F)C2)c2ccccc2Cl)c1 [Compound 143, (S)—N—((S)-1-(2-Chlorophenyl)-2-((3,3-difluorocyclobutyl)amino)-2-oxoethyl)-3-(4-cyanopyridin-2-yl)-N-(5-fluoropyridin-3-yl)-2-oxo-1,3-oxazinane-4-carboxamide]
6.30 to 7.00	CS(=O)(=O)c1cccc(N(C(=O)[C@@H]2CCC(=O)N2c2nccc(C#N)n2)[C@H](C(=O)NC2CCC(F)(F)CC2)c2ccccc2Cl)c1 [Compound 103, (S)—N—((S)-1-(2C)-2-((4,4-difluorocyclohexyl)amino)-2-oxoethyl)-1-(4-cyanopyrimidin-2-yl)-N-(3-(methylsulfonyl)phenyl)-5-oxopyrrolidine-2-carboxamide]
> 7.00	N#Cc1cccc(N(C(=O)[C@@H]2CCC(=O)N2c2cc(C#N)ccn2)[C@H](C(=O)NC2CCC(F)(F)CC2)c2ccccc2Cl)c1 [Compound 166, (S)—N—((S)-1-(2-Chlorophenyl)-2-((4,4-difluorocyclohexyl)amino)-2-oxoethyl)-N-(3-cyanophenyl)-1-(4-cyanopyridin-2-yl)-5-oxopyrrolidine-2-carboxamide]
> 7.00	N#Cc1ccnc(N2C(=O)CC[C@H]2C(=O)N(c2cccc(F)c2)[C@H](C(=O)NC2CC(F)(F)C2)c2ccccc2F)c1 [Compound 149, (S)-1-(4-Cyanopyridin-2-yl)-N—((S)-2-((3,3-difluorocyclobutyl)amino)-1-(2-fluorophenyl)-2-oxoethyl)-N-(3-fluorophenyl)-5-oxopyrrolidine-2-carboxamide]
> 7.00	COc1cccc(N(C(=O)[C@@H]2CCC(=O)N2c2nccc(C#N)n2)[C@H](C(=O)NC2CC(F)(F)C2)c2ccccc2Cl)c1 [Compound 164, (S)—N—((S)-1-(2-Chlorophenyl)-2-(3,3-difluorocyclobutyl-amino)-2-oxoethyl)-1-(4-cyanopyrimidin-2-yl)-N-(3-methoxyphenyl)-5-oxopyrrolidine-2-carboxamide]
> 7.00	N#Cc1ccnc(N2C(=O)CC[C@H]2C(=O)N(c2cccc(OC(F)F)c2)[C@H](C(=O)NC2CC(F)(F)C2)c2ccccc2Cl)c1 [Compound 181, (S)—N—((S)-1-(2-Chlorophenyl)-2-((3,3-difluorocyclobutyl)amino)-2-oxoethyl)-1-(4-cyanopyridin-2-yl)-N-(3-(difluoromethoxy)phenyl)-5-oxopyrrolidine-2-carboxamide]
> 7.00	O=C(NC1CCC(F)(F)C1)C(c1ccccc1Cl)N(C(=O)[C@@H]1CCC(=O)N1c1ncccn1)c1cccc(F)c1 (mixture of isomers) [Compound 73, (2S)—N-(1-(2-Chlorophenyl)-2-((3,3-difluorocyclopentyl)amino)-2-oxoethyl)-N-(3-fluorophenyl)-5-oxo-1-(pyrimidin-2-yl)pyrrolidine-2-carboxamide]
> 7.00	N#Cc1ccnc(N2C(=O)CN(CCO)C[C@H]2C(=O)N(c2cc(F)cc(F)c2)[C@H](C(=O)NC2CC(F)(F)C2)c2ccccc2Cl)c1 [Compound 107, (S)—N—((S)-1-(2-chlorophenyl)-2-((3,3-difluorocyclobutyl)amino)-2-oxoethyl)-1-(4-cyanopyridin-2-yl)-N-(3,5-difluorophenyl)-4-(2-hydroxyethyl)-6-oxopiperazine-2-carboxamide]
> 7.00	CNS(=O)(=O)c1cccc(N(C(=O)[C@@H]2CCC(=O)N2c2cc(C#N)ccn2)[C@H](C(=O)NC2CC(F)(F)C2)c2ccccc2Cl)c1 [Compound 157]
> 7.00	N#Cc1ccnc(N2C(=O)[C@H](O)C[C@H]2C(=O)N(c2cccc(F)c2)[C@H](C(=O)NC2CCC(F)(F)CC2)c2ccccc2Cl)c1 [Compound 121, (2S,4R)—N—((S)-1-(2-Chlorophenyl)-2-((4,4-difluorocyclohexyl)amino)-2-oxoethyl)-1-(4-cyanopyridin-2-yl)-N-(3-fluorophenyl)-4-hydroxy-5-oxopyrrolidine-2-carboxamide]
> 7.00	N#Cc1ccnc(N2C(=O)CC[C@H]2C(=O)N(c2cc(F)cc(F)c2)[C@H](C(=O)NC2CC(F)(F)C2)c2ccccc2Cl)c1 [Compound 71, (S)—N—((S)-1-(2-Chlorophenyl)-2-((3,3-difluorocyclobutyl)amino)-2-oxoethyl)-1-(4-cyanopyridin-2-yl)-N-(3,5-difluorophenyl)-5-oxopyrrolidine-2-carboxamide]
> 7.00	N#Cc1ccnc(N2C(=O)[C@H](O)C[C@H]2C(=O)N(c2cc(F)cc(F)c2)[C@H](C(=O)NC2CC(F)(F)C2)c2ccccc2Cl)c1 [Compound 115, (2S,4R)—N—((S)-1-(2-Chlorophenyl)-2-((3,3-difluorocyclobutyl)amino)-2-oxoethyl)-1-(4-cyanopyridin-2-yl)-N-(3,5-difluorophenyl)-4-hydroxy-5-oxopyrrolidine-2-carboxamide]
> 7.00	N#Cc1cc(F)cc(N(C(=O)[C@@H]2CCC(=O)N2c2nccc(C#N)n2)[C@H](C(=O)NC2CCC(F)(F)CC2)c2ccccc2Cl)c1 [Compound 185, (S)—N—((S)-1-(2-Chlorophenyl)-2-((4,4-difluorocyclohexyl)amino)-2-oxoethyl)-N-(3-cyano-5-fluorophenyl)-1-(4-cyanopyrimidin-2-yl)-5-oxopyrrolidine-2-carboxamide]
> 7.00	CC(C)(C)OC(=O)N1CC(=O)N(c2cc(C#N)ccn2)[C@H](C(=O)N(c2cccc(F)c2)[C@H](C(=O)NC2CC(F)(F)C2)c2ccccc2Cl)C1 [Compound 89, (3S)-tert-Butyl 3-((1-(2-chlorophenyl)-2-((3,3-difluorocyclobutyl)amino)-2-oxoethyl)(3-fluorophenyl)carbamoyl)-4-(4-cyanopyridin-2-yl)-5-oxopiperazine-1-carboxylate]
> 7.00	N#Cc1ccnc(N2C(=O)CC[C@H]2C(=O)N(c2cccc(C3CC3)c2)[C@H](C(=O)NC2CC(F)(F)C2)c2ccccc2Cl)n1 [Compound 182, (S)—N—((S)-1-(2-Chlorophenyl)-2-((3,3-difluorocyclobutyl)amino)-2-oxoethyl)-1-(4-cyanopyri-midin-2-yl)-N-(3-cyclopropylphenyl)-5-oxopyrrolidine-2-carboxamide]
> 7.00	N#Cc1ccnc(N2C(=O)CC[C@H]2C(=O)N(c2cccc(OC(F)F)c2)[C@H](C(=O)NC2CC(F)(F)C2)c2ccccc2Cl)n1 [Compound 194, (S)—N—((S)-1-(2-Chlorophenyl)-2-((3,3-difluorocyclobutyl)amino)-2-oxoethyl)-1-(4-cyanopyrimidin-2-yl)-N-(3-(difluoromethoxy)phenyl)-5-oxopyrrolidine-2-carboxamide]
6.30 to 7.00	CS(=O)(=O)c1cccc(N(C(=O)[C@@H]2CCC(=O)N2c2nccc(C#N)n2)C(C(=O)NC2CC(F)(F)C2)c2ccccc2Cl)c1 (mixture of isomers) [Compound 102, (2S)—N-(1-(2-Chlorophenyl)-2-((3,3-difluorocyclobutyl)amino)-2-oxoethyl)-1-(4-cyanopyrimidin-2-yl)-N-(3-(methylsulfonyl)phenyl)-5-oxopyrrolidine-2-carboxamide]
> 7.00	O=C(NC1CC(F)(F)C1)[C@H](c1ccccc1Cl)N(C(=O)[C@@H]1COC(=O)N1c1ncccn1)c1cccc(F)c1 [Compound 9, (S)—N—((S)-1-(2-chloro-phenyl)-2-(3,3-difluorocyclo-butylamino)-2-oxoethyl)-N-(3-fluoro-phenyl)-2-oxo-3-(pyrimidin-2-yl)oxazolidine-4-carboxamide]
> 7.00	N#Cc1ccnc(N2C(=O)CC[C@H]2C(=O)N(c2cccc(F)c2)[C@H](C(=O)NC2CCC(F)(F)CC2)c2ccccc2Cl)n1 [Compound 85, (S)—N—((S)-1-(2-Chlorophenyl)-2-((4,4-difluorocyclohexyl)amino)-2-oxoethyl)-1-(4-cyanopyrimidin-2-yl)-N-(3-fluorophenyl)-5-oxopyrrolidine-2-carboxamide]
> 7.00	N#Cc1ccnc(N2C(=O)CC[C@H]2C(=O)N(c2ccccc2F)[C@H](C(=O)NC2CC(F)(F)C2)c2ccccc2Cl)c1 [Compound 187, (S)—N—((S)-1-(2-Chlorophenyl)-2-((3,3-difluorocyclobutyl)amino)-2-oxoethyl)-1-(4-cyanopyridin-2-yl)-N-(2-fluorophenyl)-5-oxopyrrolidine-2-carboxamide]

Same assay, conditions: inhibition of 2-HG production, U87MG cells, 48 hours

Structure (SMILES)	pIC50
N#Cc1ccnc(N2C(=O)CC[C@H]2C(=O)N(c2cccc(C3(O)CC3)c2)[C@H](C(=O)NC2CC(F)(F)C2)c2ccccc2Cl)c1 [Compound 140, (S)—N—((S)-1-(2-Xhlorophenyl)-2-(3,3-difluorocyclobutylamino)-2-oxoethyl)-1-(4-cyanopyridin-2-yl)-N-(3-(1-hydroxycyclopropyl)phenyl)-5-oxopyrrolidine-2-carboxamide]	> 7.00
